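All cell lines were grown in 96-well plates and treated with compound for 48 hours. At the GI50, growth is halved.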 Active and inactive are the calls of the source. No stated cut-off is given here; in the data, active = GI50 up to about 1.1 µM and inactive = higher.
Tests used:
Experiment in all cases: NCI anticancer screen, dose series, 48 h
[1] = test system: DU-145
[2] = test system: 786-0
[3] = test system: NCI/ADR-RES
[4] = test system: BT-549
[5] = test system: HT-29
[6] = test system: SK-MEL-2
[7] = test system: UO-31
[8] = test system: OVCAR-4
[9] = test system: Malme-3M
[10] = test system: CAKI-1
[11] = test system: SK-MEL-28
[12] = test system: T47D
[13] = test system: OVCAR-8
[14] = test system: K562
[15] = test system: PC-3
[16] = test system: MDA-N
[17] = test system: NCI-H460
[18] = test system: SK-OV-3
[19] = test system: U-251
[20] = test system: HOP-62
[21] = test system: Hs-578T
[22] = test system: OVCAR-3
[23] = test system: IGROV-1
[24] = test system: A498
[25] = test system: KM12
[26] = test system: NCI-H226
[27] = test system: CCRF-CEM
[28] = test system: RPMI-8226
[29] = test system: HCT-116
[30] = test system: UACC-257
[31] = test system: HCT-15
[32] = test system: TK-10
[33] = test system: UACC-62
[34] = test system: SK-MEL-5
[35] = test system: NCI-H522
[36] = test system: M14
[37] = test system: SF-295
[38] = test system: COLO 205
[39] = test system: SNB-75
[40] = test system: SF-539
[41] = test system: MOLT-4
[42] = test system: EKVX
[43] = test system: A549
[44] = test system: SNB-19
[45] = test system: OVCAR-5
[46] = test system: SW-620
[47] = test system: SF-268
[48] = test system: MDA-MB-231
[49] = test system: RXF 393
[50] = test system: HCC 2998
[51] = test system: SN12C
[52] = test system: LOX IMVI
[53] = test system: MDA-MB-435
[54] = test system: NCI-H23
[55] = test system: MCF7
[56] = test system: ACHN
[57] = test system: HOP-92
[58] = test system: HL-60

Q: With `COc1ccc(/C=N/n2c(Cc3ccc(Cl)cc3)n[nH]c2=O)c(OC)c1` as the molecule, how does the GI50 [1] read?
A: 67.8 µM (inactive)

Q: What about the GI50 [2] of the same molecule?
A: 22.4 µM (inactive)

Q: What about the GI50 [3] of the same molecule?
A: 12.3 µM (inactive)

Q: What about the GI50 [4] of the same molecule?
A: 35.2 µM (inactive)

Q: And the GI50 [5]?
A: 24.9 µM (inactive)

Q: And the GI50 [6]?
A: 53 µM (inactive)

Q: What about the GI50 [7] of the same molecule?
A: > 100 µM (inactive)

Q: What about the GI50 [8] of the same molecule?
A: 16 µM (inactive)

Q: And the GI50 [9]?
A: > 100 µM (inactive)

Q: And the GI50 [10]?
A: 45.4 µM (inactive)

Q: And the GI50 [11]?
A: 80 µM (inactive)

Q: What about the GI50 [12] of the same molecule?
A: 69 µM (inactive)

Q: What about the GI50 [13] of the same molecule?
A: 33 µM (inactive)

Q: What about the GI50 [14] of the same molecule?
A: > 100 µM (inactive)

Q: What about the GI50 [15] of the same molecule?
A: 28.8 µM (inactive)

Q: And the GI50 [16]?
A: 57.9 µM (inactive)

Q: And the GI50 [17]?
A: > 100 µM (inactive)

Q: And the GI50 [18]?
A: 26.1 µM (inactive)

Q: And the GI50 [19]?
A: 32.2 µM (inactive)

Q: What about the GI50 [20] of the same molecule?
A: > 100 µM (inactive)

Q: And the GI50 [21]?
A: 14.3 µM (inactive)

Q: What about the GI50 [22] of the same molecule?
A: 35.2 µM (inactive)

Q: And the GI50 [23]?
A: 20.8 µM (inactive)

Q: And the GI50 [24]?
A: 20.4 µM (inactive)

Q: And the GI50 [25]?
A: 27.3 µM (inactive)

Q: And the GI50 [26]?
A: 29.9 µM (inactive)

Q: What about the GI50 [27] of the same molecule?
A: > 100 µM (inactive)

Q: What about the GI50 [28] of the same molecule?
A: > 100 µM (inactive)

Q: And the GI50 [29]?
A: > 100 µM (inactive)

Q: And the GI50 [30]?
A: 41.1 µM (inactive)

Q: What about the GI50 [31] of the same molecule?
A: 36.3 µM

Q: And the GI50 [32]?
A: 18.2 µM (inactive)

Q: What about the GI50 [33] of the same molecule?
A: 24.9 µM (inactive)

Q: And the GI50 [34]?
A: > 10 µM (inactive)

Q: And the GI50 [35]?
A: 16 µM (inactive)

Q: What about the GI50 [36] of the same molecule?
A: 94.8 µM (inactive)

Q: And the GI50 [37]?
A: 19 µM (inactive)

Q: What about the GI50 [38] of the same molecule?
A: > 100 µM (inactive)

Q: What about the GI50 [39] of the same molecule?
A: 15.9 µM (inactive)

Q: What about the GI50 [40] of the same molecule?
A: > 100 µM (inactive)

Q: What about the GI50 [41] of the same molecule?
A: > 100 µM (inactive)

Q: What about the GI50 [42] of the same molecule?
A: 33.1 µM (inactive)

Q: What about the GI50 [43] of the same molecule?
A: 27.4 µM (inactive)

Q: What about the GI50 [44] of the same molecule?
A: 20.7 µM (inactive)

Q: What about the GI50 [45] of the same molecule?
A: 38.3 µM (inactive)

Q: What about the GI50 [46] of the same molecule?
A: > 100 µM (inactive)

Q: And the GI50 [47]?
A: 13.5 µM (inactive)

Q: What about the GI50 [48] of the same molecule?
A: 52.5 µM (inactive)

Q: What about the GI50 [49] of the same molecule?
A: 19.1 µM (inactive)

Q: What about the GI50 [50] of the same molecule?
A: 44.6 µM (inactive)

Q: What about the GI50 [51] of the same molecule?
A: > 10 µM (inactive)

Q: What about the GI50 [52] of the same molecule?
A: 60.5 µM (inactive)

Q: What about the GI50 [53] of the same molecule?
A: 36.8 µM (inactive)

Q: What about the GI50 [54] of the same molecule?
A: 29.4 µM (inactive)

Q: What about the GI50 [55] of the same molecule?
A: 33.6 µM (inactive)

Q: What about the GI50 [56] of the same molecule?
A: 44.7 µM (inactive)

Q: What about the GI50 [57] of the same molecule?
A: 29.2 µM (inactive)

Q: What does the source list for `CSc1s[s+]c(SC)c1-c1ccccc1`?
A: GI50 [1]: 70.1 µM (inactive); GI50 [2]: 14.1 µM (inactive); GI50 [3]: 18.7 µM (inactive); GI50 [4]: 13.9 µM (inactive); GI50 [5]: 17.5 µM (inactive); GI50 [7]: 18.4 µM (inactive); GI50 [8]: 0.329 µM (active); GI50 [9]: 11.3 µM (inactive); GI50 [10]: 17.1 µM (inactive); GI50 [58]: 28.9 µM (inactive); GI50 [12]: 32.6 µM (inactive); GI50 [13]: 15.7 µM (inactive); GI50 [14]: 20.2 µM (inactive); GI50 [15]: 21.7 µM (inactive); GI50 [16]: 16.7 µM (inactive); GI50 [17]: 29.7 µM (inactive); GI50 [18]: 15.9 µM (inactive); GI50 [19]: 19.4 µM (inactive); GI50 [20]: 14.6 µM (inactive); GI50 [21]: 25.4 µM (inactive); GI50 [22]: 15 µM (inactive); GI50 [23]: 17.6 µM (inactive); GI50 [24]: 19.8 µM (inactive); GI50 [25]: 16 µM (inactive); GI50 [27]: 25.2 µM (inactive); GI50 [28]: 19.8 µM (inactive); GI50 [29]: 15.4 µM (inactive); GI50 [30]: 14.4 µM (inactive); GI50 [31]: 16.4 µM; GI50 [32]: 15.5 µM (inactive); GI50 [33]: 13.4 µM (inactive); GI50 [34]: 15.7 µM (inactive); GI50 [35]: 11.7 µM (inactive); GI50 [36]: 16.5 µM (inactive); GI50 [37]: 17.6 µM (inactive); GI50 [38]: 18.4 µM (inactive); GI50 [40]: 18.2 µM (inactive); GI50 [41]: 46.1 µM (inactive); GI50 [42]: 14.8 µM (inactive); GI50 [43]: 28.1 µM (inactive); GI50 [44]: 16.6 µM (inactive); GI50 [45]: 15.8 µM (inactive); GI50 [46]: 16.4 µM (inactive); GI50 [47]: 18.2 µM (inactive); GI50 [48]: 12.2 µM (inactive); GI50 [49]: 16.3 µM (inactive); GI50 [50]: 5.62 µM (inactive); GI50 [51]: 16.3 µM (inactive); GI50 [52]: 25.9 µM (inactive); GI50 [53]: 18.9 µM (inactive); GI50 [54]: 16.9 µM (inactive); GI50 [55]: 17 µM (inactive); GI50 [56]: 16.3 µM (inactive); GI50 [57]: 13.2 µM (inactive)

Source: ChEMBL document CHEMBL1201862, “PubChem BioAssay data set” (2004)
